From ChEMBL document CHEMBL6087412, “Discovery of cloxiquine derivatives as potent HDAC inhibitors for the treatment of melanoma via activating PPARγ” (Eur J Med Chem, 2025)

Key:
[1] = system: SK-MEL-5; experiment: Induction of cell cycle arrest in human SK-MEL-5 cells assessed as accumulation of cells at G0/G1 phase at 5 uM incubated for 48 hrs by propidium iodide staining based flow cytometry (reference value: 66.27 %); type: functional
[2] = system: SK-MEL-5; experiment: Induction of cell cycle arrest in human SK-MEL-5 cells assessed as accumulation of cells at G2/M phase at 5 uM incubated for 48 hrs by propidium iodide staining based flow cytometry (reference value: 8.36 %); type: functional
[3] = system: SK-MEL-5; experiment: Induction of cell cycle arrest in human SK-MEL-5 cells assessed as accumulation of cells at S phase at 5 uM incubated for 48 hrs by propidium iodide staining based flow cytometry (reference value: 25.36 %); type: functional
[4] = system: SK-MEL-5; experiment: Induction of apoptosis in human SK-MEL-5 cells assessed as viable cells at 5 uM incubated for 48 hrs by Annexin V-APC/7-AAD staining based flow cytometric analysis (reference value: 95.77 %); type: functional
[5] = system: SK-MEL-5; experiment: Induction of apoptosis in human SK-MEL-5 cells assessed as early apoptotic cells at 5 uM incubated for 48 hrs by Annexin V-APC/7-AAD staining based flow cytometric analysis (reference value: 2.29 %); type: functional
[6] = system: SK-MEL-5; experiment: Induction of apoptosis in human SK-MEL-5 cells assessed as late apoptotic cells at 5 uM incubated for 48 hrs by Annexin V-APC/7-AAD staining based flow cytometric analysis (reference value: 0.9 %); type: functional
[7] = system: SK-MEL-5; experiment: Induction of apoptosis in human SK-MEL-5 cells assessed as necrotic cells at 5 uM incubated for 48 hrs by Annexin V-APC/7-AAD staining based flow cytometric analysis (reference value: 1.05 %); type: functional
[8] = system: SK-MEL-5; experiment: Antitumor activity against human SK-MEL-5 cells xenografted with BALB/c mouse assessed as tumor growth inhibition at 30 mg/kg,ip administrated for 21 consecutive days; type: functional; conditions: read-out: TGI
[9] = system: A-375; experiment: cells; conditions: Homo sapiens, A-375, 72 h
Description: Antiproliferative activity against human A-375 cells assessed as inhibition of cell growth incubated for 72 hrs by MTT assay

[10] = system: SK-MEL-5; experiment: cells; conditions: Homo sapiens, SK-MEL-5, 72 h
Description: Antiproliferative activity against human SK-MEL-5 cells assessed as inhibition of cell growth incubated for 72 hrs by MTT assay

[11] = in vitro; conditions: human, MRC5 cells
Description: Antiproliferative activity against human MRC5 cells assessed as inhibition of cell growth incubated for 72 hrs by MTT assay

IC50 [9] | IC50 [10] | IC50 at 72 h [11] | SMILES | further results
15.1 µM | 15 µM | 18.4 µM | O=C(NO)c1ccc(COc2cccc3cccnc23)cc1 | –
11.9 µM | 10.8 µM | 23.3 µM | O=C(NO)c1ccc(CCOc2ccc(Cl)c3cccnc23)cc1 | –
– | 2.16 µM | – | O=C(CCCCCCC(=O)Nc1ccccc1)NO [VORINOSTAT] | Activity [1]: 55.91%; Activity [2]: 19.87%; Activity [3]: 24.22%; Activity [4]: 57.12%; Activity [5]: 32.5%; Activity [6]: 7.99%; Activity [7]: 2.39%
> 50 µM | > 50 µM | > 50 µM | O=C(CCCCOc1cccc2cccnc12)NO | –

Continued, compound first:

SMILES | IC50 [9] | IC50 [10] | IC50 at 72 h [11] | further results
Oc1ccc(Cl)c2cccnc12 [CLOXYQUIN] | 6.08 µM | 5 µM | 20.4 µM | Activity [1]: 58.85%; Activity [2]: 13.48%; Activity [3]: 27.67%; viability at 5 µM ([4]; Homo sapiens, SK-MEL-5, read-out: Activity): 85.1%; Activity [5]: 6.96%; Activity [6]: 4.88%; Activity [7]: 3.08%; inhibition in vivo at 30 mg/kg [8]: 24.3%
O=C(CCCOc1cccc2cccnc12)NO | 32.8 µM | 29.8 µM | > 50 µM | –
O=C(/C=C/c1ccc(COc2ccc(Cl)c3cccnc23)cc1)NO | 3.45 µM | 3.7 µM | 6.94 µM | –
O=C(NO)c1cccc(COc2cccc3cccnc23)c1 | > 50 µM | 41.5 µM | > 50 µM | –
O=C(NO)c1ccc(COc2ccc(Cl)c3cccnc23)cc1 | > 50 µM | > 50 µM | > 50 µM | –
O=C(/C=C/c1ccc(COc2cccc3cccnc23)cc1)NO | 3.72 µM | 3.67 µM | 7.34 µM | –
O=C(CCCCCOc1cccc2cccnc12)NO | 13.8 µM | 12.7 µM | 28.1 µM | –
